In brackets after ≈: the same amount, converted by molar mass. Where two headings read alike, the source gives them in different places.
Legend:
[1] = tested on: M. tuberculosis strain H37Rv; assay: microbe, parasite or virus in culture; assay type: cell-based, Mycobacterium tuberculosis; parameters: MICMABA: unit not given here; conditions: for activity in comparison to the 4,6-dimethyl analog (1h): H37Rv MIC relative to 1h
M. tuberculosis H37Rv [2] = assay: microbe, parasite or virus in culture; assay type: cell-based, Mycobacterium tuberculosis; parameters: MICBD / MBCBD: unit not given here
[3] = Cytotoxicity assay on Vero cells (alamar blue); conditions: African green monkey, Vero cells (ATCC CCL-81)
Vero cells = assay: Cytotoxicity assay on Vero cells (alamar blue); conditions: for IC50: Chlorocebus sabaeus, Vero
M. tuberculosis H37Rv [4] = assay type: cell-based, Mycobacterium tuberculosis; conditions: 4× MIC
[5] = tested on: V4207 (drug susceptible strain of M. tuberculosis); assay: microbe, parasite or virus in culture; assay type: cell-based; conditions: Mycobacterium tuberculosis, MABA, read-out: MIC V4207 (DS)
M. tuberculosis H37Rv [6] = assay type: in vivo, BALB/c mice
M. tuberculosis H37Rv [7] = conditions: 100 mg/kg oral gavage
[8] = Mycobacterium tuberculosis, H37RV, read-out: MIC for H37Rv
[9] = Mycobacterium tuberculosis, H37RV
[10] = Mycobacterium tuberculosis, parental H37Rv strain, read-out: MIC for H37Rv

## NC[C@H]1O[C@H](O[C@H]2[C@H](O)[C@@H](O[C@H]3O[C@H](CO)[C@@H](O)[C@H](N)[C@H]3O)[C@H](N)C[C@@H]2N)[C@H](O)[C@@H](O)[C@@H]1O [Kanamycin, reference compound]
[1]; [8]
  MIC: 2 µg/mL

## Cc1cc(C)c2cc(C(=O)NC3CCCCCC3)[nH]c2c1 [Compound 11, N-Cycloheptyl-4,6-dimethyl-1H-indole-2-carboxamide]
M. tuberculosis H37Rv [2]; H37Rv, broth dilution, Table 9
  MBCBD: 0.0312
  MICBD: 0.0156
M. tuberculosis H37Rv [2]; Mycobacterium tuberculosis, H37RV, read-out: minimum bactericidal concentration (MBC)
  MBC: 0.0313 µg/mL (≈ 0.11 µM)
[3]
  IC50 at 72 h: > 200 µM
Vero cells; read-out: IC50 Vero Cells
  IC50: > 64 µg/mL
Vero cells; read-out: IC50 for Vero cell viability
  IC50: > 64 µg/mL
Vero cells; Vero IC50 versus MIC, Table 9
  Selectivity Index: >2048
Vero cells; toxicity versus MIC
  selectivity index: > 2048
M. tuberculosis H37Rv [4]
  time to kill at least 4 log10 CFUs: ≤ 3 days
[5]
  MIC: 0.11 µM (≈ 0.0313 µg/mL)
[1]; H37Rv, MABA, Table 9
  MICMABA: 0.0156
[1]; [9]
  MIC: 0.055 µM
[1]; Mycobacterium tuberculosis, control strains H37Rv and V4207, read-out: MIC
  MIC: 0.0156 to 0.0313 µg/mL
[1]; [10]
  MIC: 0.0156 to 0.0313 µg/mL

## Cc1cc(C)c2c(C(=O)NC3CCCCCC3)c[nH]c2c1 [Compound 41, N-Cycloheptyl-4,6-dimethyl-1H-indole-3-carboxamide]
[1]; H37Rv, MABA, Table 9
  MICMABA: >64

## CO[C@H]1/C=C/O[C@@]2(C)Oc3c(C)c(O)c4c(O)c(c(/C=N/N5CCN(C)CC5)c(O)c4c3C2=O)NC(=O)/C(C)=C\C=C\[C@H](C)[C@H](O)[C@@H](C)[C@@H](O)[C@@H](C)[C@H](OC(C)=O)[C@@H]1C [Rifampin]
[1]; [8]
  MIC: 0.125 µg/mL

## CC(C)=CCC/C(C)=C/CNCCNC1C2CC3CC(C2)CC1C3 (stereo not shown) [SQ109]
[1]; [10]
  MIC: 0.25 µg/mL

## Cc1cc(C)c2c(C(=O)NC3CCCCCCC3)c[nH]c2c1 [Compound 42, N-Cyclooctyl-4,6-dimethyl-1H-indole-3-carboxamide]
[1]; H37Rv, MABA, Table 9
  MICMABA: >64

## O=C(NC12CC3CC(CC(C3)C1)C2)c1cc2ccc(O)cc2[nH]1 [Compound 32, N-(1-Adamantyl)-6-hydroxy-1H-indole-2-carboxamide]
Vero cells; read-out: IC50 Vero Cells
  IC50: 16 µg/mL (≈ 51.5 µM)
[1]; H37Rv, MABA, Table 9
  MICMABA: 2

## O=C(NC1CCCCC1)c1cc2ccccc2[nH]1 [Compound 26, N-Cyclohexyl-1H-indole-2-carboxamide]
M. tuberculosis H37Rv [2]; H37Rv, broth dilution, Table 9
  MICBD: >128
[1]; H37Rv, MABA, Table 9
  MICMABA: 128

## BM212
[1]; parental H37Rv strain
  MIC for H37Rv: 2 µg/mL

## Cc1cc(C)c2cc(C(=O)NC3CCCCC3)n(C)c2c1 [Compound 18, N-Cyclohexyl-1,4,6-trimethyl-11-1-indole-2-carboxamide]
M. tuberculosis H37Rv [2]; H37Rv, broth dilution, Table 9
  MICBD: 128
[1]
  MICMABA: 128
[1]; [9]
  MIC: 450 µM

## NNC(=O)c1ccncc1 [Isoniazid, reference compound]
M. tuberculosis H37Rv [6]; isoniazid 10 mg/kg oral gavage daily (5 days per week), Day 7
  Mean lung CFU counts (standard deviation), Day 7: 5.508 (0.124)
M. tuberculosis H37Rv [6]; isoniazid 10 mg/kg oral gavage daily, Day 14
  Mean lung CFU counts (standard deviation), Day 14: 5.266 (0.089)
M. tuberculosis H37Rv [6]; isoniazid 10 mg/kg oral gavage daily, Day 28
  Mean lung CFU counts (standard deviation), Day 28: 4.561 (0.088)
[1]; H37Rv, MABA, Table 9
  MICMABA: 0.04
[1]; [9]
  MIC: 0.29 µM
[1]; [10]
  MIC: 0.04 µg/mL

## Cc1cc(C)c2cc(C(=O)NC3CCCN(C)CC3)[nH]c2c1 (stereo not shown) [Compound 9, N-(1-Methyl-4-azepanyl)-4,6-dimethyl-1H-indole-2-carboxamide]
[1]; H37Rv, MABA, Table 9
  MICMABA: 128
[1]; [9]
  MIC: 428 µM

## COc1ccc2cc(C(=O)NC34CC5CC(CC(C5)C3)C4)[nH]c2c1 [Compound 30, N-(1-Adamantyl)-6-methoxy-1H-indole-2-carboxamide]
Vero cells; read-out: IC50 Vero Cells, Vero cells, Table 9
  IC50: 64 µg/mL (≈ 197 µM)
[1]; H37Rv, MABA, Table 9
  MICMABA: 0.25

## Cc1ccc(NC(=O)c2cc3ccccc3[nH]2)cc1F [Compound 27, N-(3-Fluoro-4-methylphenyl)-1H-indole-2-carboxamide]
M. tuberculosis H37Rv [2]; H37Rv, broth dilution, Table 9
  MICBD: 128
[1]; H37Rv, MABA, Table 9
  MICMABA: 128

## Cc1cc(C)c2c(C(=O)NC34CC5CC(CC(C5)C3)C4)c[nH]c2c1 [Compound 43, N-(1-Adamantyl)-4,6-dimethyl-1H-indole-3-carboxamide]
[1]; H37Rv, MABA, Table 9
  MICMABA: >64

## Cc1cc(C)c2cc(C(=O)N3CCCCC3)[nH]c2c1 [Compound 17, (4,6-Dimethyl-11-1-indo1-2-yl)(piperidin-1-yl)methanone]
[1]
  MIC: >499 µM

## COc1c(N2C[C@@H]3CCCN[C@@H]3C2)c(F)cc2c(=O)c(C(=O)O)cn(C3CC3)c12 [Moxifloxacin, reference compound]
[1]; [10]
  MIC: 0.0625 to 0.125 µg/mL

## O=C(NC1CCCCCCC1)c1cc2c(F)cc(F)cc2[nH]1 [Compound 29, N-Cyclooctyl-4,6-difluoro-1H-indole-2-carboxamide]
[1]
  activity in comparison to the 4,6-dimethyl analog (1h): 8 fold
[1]; H37Rv, MABA, Table 9
  MICMABA: 0.031

## Cc1cc(C)c2cc(C(=O)NC3CCN(C)CC3)[nH]c2c1 [Compound 7, N-(1-Methyl-4-piperidinyl)-4,6-dimethyl-1H-indole-2-carboxamide]
[1]
  MICMABA: 128
[1]; [9]
  MIC: 448 µM

## Cc1cc(C)c2cc(C(=O)N(C)C3CCCCC3)[nH]c2c1 [Compound 16, N-Cyclohexyl-N,4,6-trimethyl-/H-indole-2-carboxamide]
M. tuberculosis H37Rv [2]
  MICBD: 128
[1]
  MIC: 450 µM
  MICMABA: 32

## O=C(NC1CCCCCCC1)c1cc2c(Cl)cc(Cl)cc2[nH]1 [Compound 70, N-Cyclooctyl-4,6-dichloro-1H-indole-2-carboxamide]
[1]; H37Rv, MABA, Table 9
  MICMABA: 0.0039

## Cc1cc(C)c2cc(C(=O)NC3CCN(C(C)C)CC3)[nH]c2c1 [Compound 8, N-(1-Isopropyl-4-piperidinyl)-4,6-dimethyl-1H-indole-2-carboxamide]
[1]; H37Rv, MABA, Table 9
  MICMABA: 64
[1]; [9]
  MIC: 204 µM

## NCC[C@H](O)C(=O)N[C@@H]1C[C@H](N)[C@@H](O[C@H]2O[C@H](CN)[C@@H](O)[C@H](O)[C@H]2O)[C@H](O)[C@H]1O[C@H]1O[C@H](CO)[C@@H](O)[C@H](N)[C@H]1O [Amikacin]
[1]; [10]
  MIC: 1 µg/mL

## Cc1cc(C)c2cc(C(=O)NCC3CCCCC3)[nH]c2c1 [Compound 15, N-(Cyclohexylmethyl)-4,6-dimethyl-1H-indole-2-carboxamide]
M. tuberculosis H37Rv [2]; H37Rv, broth dilution, Table 9
  MBCBD: 0.25
  MICBD: 0.25
[3]
  IC50 at 72 h: > 200 µM
Vero cells; read-out: IC50 Vero Cells
  IC50: > 64 µg/mL
[1]; H37Rv, MABA, Table 9
  MICMABA: 0.25
[1]; [9]
  MIC: 0.88 µM

## Cc1cc(C)c2cc(C(=O)Nc3ccncc3)[nH]c2c1 [Compound 6, N-(4-Pyridinyl)-4,6-dimethyl-1H-indole-2-carboxamide]
M. tuberculosis H37Rv [2]; H37Rv, broth dilution, Table 9
  MICBD: 64
[1]; H37Rv, MABA, Table 9
  MICMABA: 32
[1]; [9]
  MIC: 240 µM

## CC[C@@H](CO)NCCN[C@@H](CC)CO [Ethambutol]
[1]; [10]
  MIC: 1 µg/mL

## N-(2,3,5 -methyl, 4-dimethyl)-4,6-difluoro-1H-indole-2-carboxamide
M. tuberculosis H37Rv [7]; Balb/c mice
  bioavailability in vivo by serum inhibition titration: bioavailable in vivo
M. tuberculosis H37Rv [7]; isoniazid positive control
  serum inhibition activity compared with isoniazid: comparable to that of isoniazid
[1]
  activity in comparison to the 4,6-dimethyl analog (1h): as active as 1h
[1]; H37Rv, MABA, Table 9
  MICMABA: 0.0039

## Cc1cc(C)c2cc(C(=O)NC3C4CC5CC(C4)CC3C5)[nH]c2c1 (stereo not shown) [Compound 14, N-(2-Adamantyl)-4,6-dimethyl-1H-indole-2-carboxamide]
[3]
  IC50 at 72 h: > 200 µM
Vero cells; read-out: IC50 Vero Cells
  IC50: > 64 µg/mL
[1]; H37Rv, MABA, Table 9
  MICMABA: 0.0039
[1]; [9]
  MIC: 0.012 µM

## C[C@H]1COc2c(N3CCN(C)CC3)c(F)cc3c(=O)c(C(=O)O)cn1c23 [Levofloxacin, reference compound]
[1]; [10]
  MIC: 0.25 µg/mL

## Capreomycin
[1]; parental H37Rv strain
  MIC for H37Rv: 1 µg/mL

## Cc1cc(C)c2cc(C(=O)NC34CC5CC(CC(C5)C3)C4)[nH]c2c1 [Compound 13, N-(1-Adamantyl)-4,6-dimethyl-1H-indole-2-carboxamide]
[3]
  IC50 at 72 h: > 200 µM
Vero cells; read-out: IC50 Vero Cells
  IC50: > 64 µg/mL
[1]; H37Rv, MABA, Table 9
  MICMABA: 0.0019
[1]; [9]
  MIC: 0.012 µM

## N-(2,3,5 -methyl, 4-dimethyl)-6-bromo-1H-indole-2-carboxamide [BB]
[1]; H37Rv, MABA, Table 9
  MICMABA: 0.0039- 0.0078

## Cc1cc(C)c2cc(C(=O)NC3CC3)[nH]c2c1 [Compound 10, N-Cyclopropyl-4,6-dimethyl-1H-indole-2-carboxamide]
M. tuberculosis H37Rv [2]; H37Rv, broth dilution, Table 9
  MICBD: 128
[1]; H37Rv, MABA, Table 9
  MICMABA: 64
[1]; [9]
  MIC: 561 µM

## Cc1cc(C)c2cc(C(=O)Nc3ccc(C)c(F)c3)[nH]c2c1 [Compound 5, N-(3-Fluoro-4-methylphenyl)-4,6-dimethyl-1H-indole-2-carboxamide]
M. tuberculosis H37Rv [2]; H37Rv, broth dilution, Table 9
  MBCBD: 8
  MICBD: 0.5
[3]
  IC50 at 72 h: > 200 µM
Vero cells; read-out: IC50 Vero Cells
  IC50: > 64 µg/mL
[1]; H37Rv, MABA, Table 9
  MICMABA: 0.25
[1]; [9]
  MIC: 1.7 µM

## Cc1cc(C)c2c(C(=O)NC3C4CC5CC(C4)CC3C5)c[nH]c2c1 (stereo not shown) [Compound 44, N-(2-Adamantyl)-4,6-dimethyl-1H-indole-3-carboxamide]
[1]; H37Rv, MABA, Table 9
  MICMABA: >64

From patent publication US20170044100A1, “INHIBITORS OF DRUG-RESISTANT MYCOBACTERIUM TUBERCULOSIS” (THE JOHNS HOPKINS UNIVERSITY, priority 2014, published 2017)
